According to patent US20060046988A1, “Methoprene formulations for the control of tick infestations” (priority 2004, published 2006):
Like-named read-outs stand apart in the source and are kept apart here.

System: Rhipicephalus sanguineus
Assay: In vitro immersion of engorged female ticks in (S)-methoprene: oviposition, egg mass weight, egg hatch
Settings: for Eggs Weight: Day 13; for Eggs Hatch (%): 48 days after exposure; for inhibition at 100 ppm / inhibition at 1000 ppm / inhibition at 10000 ppm / inhibition at 100000 ppm: Rhipicephalus sanguineus; for Egg Mass Per Tick / Total Egg Mass / Total Viable Egg Mass / Viable Egg Mass Per Tick / Reduction in Ticks Laying Eggs: replicates combined
Method: The effect of (S)-methoprene on oviposition, egg mass weights, and egg eclosion was measured in adult females of a colonized strain of the brown dog tick, Rhipicephalus sanguineus. Approximately fifty R. sanguineus ticks were fed on twelve dogs each. Fully engorged females that dropped from the dogs over a period of two days were collected and combined into replicates. The following replicates were formed: Replicate A-50 ticks, Replicate B-40 ticks, and Replicate C-10 ticks. From each replicate A-C, 5 groups of equal numbers of ticks were formed, each group of ticks having similar combined body weights. Each of the 5 groups of ticks was randomly allocated to a treatment group.
The treatment groups were: Treatment I-Control: acetone/water (40%: 60%); Treatment 2-100 ppm (S)-methoprene dissolved in acetone/water (40:60); Treatment 3-1,000 ppm (S)-methoprene dissolved in acetone/water (40:60); Treatment 4-10,000 ppm (S)-methoprene dissolved in acetone/water (40:60); and Treatment 5-100,000 ppm (S)-methoprene dissolved in acetone/water (40:60). Each group of ticks was immersed in the appropriate test solution for two mins, after which they were removed, dried on a paper towel and placed in a clean container. All ticks in all treatment groups were kept in an environmental chamber maintained at 26-27° Celsius and 65-87% relative humidity. The number of ticks that laid eggs and total egg mass weights for each replicate of each treatment group was recorded 13 days after exposure to treatment. Additionally, an estimation of percentage of egg hatching for each replicate in each treatment group was recorded 48 days after exposure to treatment.
The number of ticks laying eggs, egg mass weights, percentage of eggs that hatched, and weight of viable eggs are provided in Table 1.

[1] = 100 ppm, Replicate A, 10 ticks treated
[2] = 100 ppm, Replicate B, 8 ticks treated
[3] = 100 ppm, Replicate C, 2 ticks treated
[4] = 1,000 ppm, Replicate A, 10 ticks treated
[5] = 1,000 ppm, Replicate B, 8 ticks treated
[6] = 1,000 ppm, Replicate C, 2 ticks treated
[7] = 10,000 ppm, Replicate A, 10 ticks treated
[8] = 10,000 ppm, Replicate B, 8 ticks treated
[9] = 10,000 ppm, Replicate C, 2 ticks treated
[10] = 100,000 ppm, Replicate A, 10 ticks treated
[11] = 100,000 ppm, Replicate B, 8 ticks treated
[12] = 100,000 ppm, Replicate C, 2 ticks treated
[13] = Treatment 3: 1,000 ppm, compared to control
[14] = Treatment 4: 10,000 ppm, compared to control
[15] = Treatment 5: 100,000 ppm, compared to control

Question: How did the “Eggs Viable” value [1] turn out when `COC(C)(C)CCC[C@H](C)C/C=C/C(C)=C/C(=O)OC(C)C` [(S)-methoprene] was run?
Answer: 1.65 g

Question: And the “Number of Ticks Laying Eggs (Day 13)” value [1]?
Answer: 10

Question: And the “Eggs Weight” value [1]?
Answer: 1.67 g

Question: What about the “Eggs Hatch (%)” value (100 ppm, Replicate A) of the same compound?
Answer: 99%

Question: What about the “Eggs Viable” value [2] of the same compound?
Answer: 1.36 g

Question: What about the “Number of Ticks Laying Eggs (Day 13)” value [2] of the same compound?
Answer: 8

Question: And the “Eggs Weight” value [2]?
Answer: 1.36 g

Question: What about the “Eggs Hatch (%)” value (100 ppm, Replicate B) of the same compound?
Answer: 100%

Question: What about the “Eggs Viable” value [3] of the same compound?
Answer: 0.18 g

Question: What about the “Number of Ticks Laying Eggs (Day 13)” value [3] of the same compound?
Answer: 2

Question: What about the “Eggs Weight” value [3] of the same compound?
Answer: 0.35 g

Question: What about the “Eggs Hatch (%)” value (100 ppm, Replicate C) of the same compound?
Answer: 50%

Question: And the “Eggs Viable” value [4]?
Answer: 0.26 g

Question: And the “Number of Ticks Laying Eggs (Day 13)” value [4]?
Answer: 9

Question: And the “Eggs Weight” value [4]?
Answer: 1.03 g

Question: And the “Eggs Hatch (%)” value (1,000 ppm, Replicate A)?
Answer: 25%

Question: And the “Eggs Viable” value [5]?
Answer: 0.29 g

Question: What about the “Number of Ticks Laying Eggs (Day 13)” value [5] of the same compound?
Answer: 8

Question: And the “Eggs Weight” value [5]?
Answer: 0.95 g

Question: And the “Eggs Hatch (%)” value (1,000 ppm, Replicate B)?
Answer: 30%

Question: And the “Eggs Viable” value [6]?
Answer: 0.10 g

Question: What about the “Number of Ticks Laying Eggs (Day 13)” value [6] of the same compound?
Answer: 2

Question: What about the “Eggs Weight” value [6] of the same compound?
Answer: 0.28 g

Question: And the “Eggs Hatch (%)” value (1,000 ppm, Replicate C)?
Answer: 35%

Question: And the “Eggs Viable” value [7]?
Answer: 0 g

Question: What about the “Number of Ticks Laying Eggs (Day 13)” value [7] of the same compound?
Answer: 10

Question: And the “Eggs Weight” value [7]?
Answer: 0.97 g

Question: And the “Eggs Hatch (%)” value (10,000 ppm, Replicate A)?
Answer: 0%

Question: And the “Eggs Viable” value [8]?
Answer: 0 g

Question: What about the “Number of Ticks Laying Eggs (Day 13)” value [8] of the same compound?
Answer: 8

Question: What about the “Eggs Weight” value [8] of the same compound?
Answer: 0.57 g

Question: And the “Eggs Hatch (%)” value (10,000 ppm, Replicate B)?
Answer: 0%

Question: What about the “Eggs Viable” value [9] of the same compound?
Answer: 0 g

Question: What about the “Number of Ticks Laying Eggs (Day 13)” value [9] of the same compound?
Answer: 2

Question: And the “Eggs Weight” value [9]?
Answer: 0.14 g

Question: And the “Eggs Hatch (%)” value (10,000 ppm, Replicate C)?
Answer: 0%

Question: What about the “Eggs Viable” value [10] of the same compound?
Answer: 0 g

Question: And the “Number of Ticks Laying Eggs (Day 13)” value [10]?
Answer: 8

Question: What about the “Eggs Weight” value [10] of the same compound?
Answer: 0.59 g

Question: And the “Eggs Hatch (%)” value (100,000 ppm, Replicate A)?
Answer: 0%

Question: And the “Eggs Viable” value [11]?
Answer: 0 g

Question: And the “Number of Ticks Laying Eggs (Day 13)” value [11]?
Answer: 8

Question: And the “Eggs Weight” value [11]?
Answer: 0.39 g

Question: And the “Eggs Hatch (%)” value (100,000 ppm, Replicate B)?
Answer: 0%

Question: And the “Eggs Viable” value [12]?
Answer: 0 g

Question: And the “Number of Ticks Laying Eggs (Day 13)” value [12]?
Answer: 2

Question: What about the “Eggs Weight” value [12] of the same compound?
Answer: 0.05 g

Question: And the “Eggs Hatch (%)” value (100,000 ppm, Replicate C)?
Answer: 0%

Question: And the inhibition at 100 ppm (Treatment 2: 100 ppm, compared to control, read-out: Reduction Viable Egg Mass Per Tick)?
Answer: 0%

Question: What about the inhibition at 100 ppm (Treatment 2: 100 ppm, compared to control, read-out: Reduction in Viable Egg Mass) of the same compound?
Answer: 0%

Question: What about the inhibition at 1000 ppm (Treatment 3: 1,000 ppm, compared to control, read-out: Reduction Viable Egg Mass Per Tick) of the same compound?
Answer: 78%

Question: And the inhibition at 1000 ppm (Treatment 3: 1,000 ppm, compared to control, read-out: Reduction in Viable Egg Mass)?
Answer: 79%

Question: And the inhibition at 10000 ppm (Treatment 4: 10,000 ppm, compared to control, read-out: Reduction Viable Egg Mass Per Tick)?
Answer: 100%

Question: And the inhibition at 10000 ppm (Treatment 4: 10,000 ppm, compared to control, read-out: Reduction in Viable Egg Mass)?
Answer: 100%

Question: What about the inhibition at 100000 ppm (Treatment 5: 100,000 ppm, compared to control, read-out: Reduction Viable Egg Mass Per Tick) of the same compound?
Answer: 100%

Question: What about the inhibition at 100000 ppm (Treatment 5: 100,000 ppm, compared to control, read-out: Reduction in Viable Egg Mass) of the same compound?
Answer: 100%

Question: What about the “Egg Mass Per Tick” value (Treatment 2: 100 ppm) of the same compound?
Answer: 0.169 g

Question: What about the “Total Egg Mass” value (Treatment 2: 100 ppm) of the same compound?
Answer: 3.38 g

Question: And the “Total Viable Egg Mass” value (Treatment 2: 100 ppm)?
Answer: 3.19 g

Question: What about the “Viable Egg Mass Per Tick” value (Treatment 2: 100 ppm) of the same compound?
Answer: 0.160 g

Question: And the “Reduction in Ticks Laying Eggs” value (Treatment 2: 100 ppm, compared to control)?
Answer: 0%

Question: What about the “Egg Mass Per Tick Reduction” value [13] of the same compound?
Answer: 28%

Question: What about the “Reduction of Total Egg Mass” value [13] of the same compound?
Answer: 32%

Question: And the “Egg Mass Per Tick” value (Treatment 3: 1,000 ppm)?
Answer: 0.119 g

Question: What about the “Total Egg Mass” value (Treatment 3: 1,000 ppm) of the same compound?
Answer: 2.26 g

Question: What about the “Total Viable Egg Mass” value (Treatment 3: 1,000 ppm) of the same compound?
Answer: 0.65 g

Question: And the “Viable Egg Mass Per Tick” value (Treatment 3: 1,000 ppm)?
Answer: 0.034 g

Question: What about the “Reduction in Ticks Laying Eggs” value [13] of the same compound?
Answer: 5%

Question: And the “Egg Mass Per Tick Reduction” value [14]?
Answer: 49%

Question: And the “Reduction Viable Egg Mass Per Tick” value [14]?
Answer: 100%

Question: What about the “Reduction of Total Egg Mass” value [14] of the same compound?
Answer: 49%

Question: And the “Egg Mass Per Tick” value (Treatment 4: 10,000 ppm)?
Answer: 0.084 g

Question: And the “Total Egg Mass” value (Treatment 4: 10,000 ppm)?
Answer: 1.68 g

Question: And the “Total Viable Egg Mass” value (Treatment 4: 10,000 ppm)?
Answer: 0 g

Question: And the “Viable Egg Mass Per Tick” value (Treatment 4: 10,000 ppm)?
Answer: 0 g

Question: What about the “Reduction in Ticks Laying Eggs” value [14] of the same compound?
Answer: 0%

Question: And the “Egg Mass Per Tick Reduction” value [15]?
Answer: 65%

Question: And the “Reduction in Viable Egg Mass” value [15]?
Answer: 100%

Question: And the “Reduction of Total Egg Mass” value [15]?
Answer: 69%

Question: And the “Egg Mass Per Tick” value (Treatment 5: 100,000 ppm)?
Answer: 0.057 g

Question: What about the “Total Egg Mass” value (Treatment 5: 100,000 ppm) of the same compound?
Answer: 1.03 g

Question: And the “Total Viable Egg Mass” value (Treatment 5: 100,000 ppm)?
Answer: 0 g

Question: What about the “Viable Egg Mass Per Tick” value (Treatment 5: 100,000 ppm) of the same compound?
Answer: 0 g

Question: What about the “Reduction in Ticks Laying Eggs” value [15] of the same compound?
Answer: 10%
